Source: US8889712B2, “IAP antagonists” (Bristol-Myers Squibb Company, priority 2012, dated 2014)
pIC50: −log10 of the molar value. Read-outs that look alike come from different tables or passages of the source.

Columns and labels:
[1] = molecular target: T1, XIAP BIR3 (Homo sapiens, UniProt P98170); assay: XIAP-BIR3/SMAC Homogeneous Time Resolved Fluorescence (HTRF) Assay; format: binding
T1 construct: His-BIR3 (241-356, XIAP)
Summary of the method: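 Competition HTRF between XIAP-BIR3 and SMAC; reaction 60 min at room temperature, then anti-6×His-terbium Fab detection for a further 30 min.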

[2] = molecular target: T2, XIAP BIR2-3 (Homo sapiens, UniProt P98170, C202A/C213G); assay: XIAP-BIR2-3 dimeric SMAC Peptide Homogeneous Time Resolved Fluorescence (HTRF) Assay; format: binding
T2 construct: His-BIR2-3 (125-356, C202A/C213G, XIAP)
Experimental: B. […] Assays were performed in black, flat-bottom, 384-well plates. […] Compounds were dissolved at 3 mM in dimethylsulfoxide (DMSO) and evaluated at eleven serially diluted concentrations. IC50 and Ki values were derived by non-linear regression analysis.

[3] = 1 nM N-His-BIR3 (241-356, XIAP), 5 nM fluorescein labeled SMAC peptide, HTRF signal, read-out: XIAP BIR3 IC50
[4] = 0.5 nM N-His-BIR2-3 (125-356, C202A/C213G, XIAP), 20 nM fluorescein labeled dimeric SMAC peptide, HTRF signal, read-out: XIAP BIR2-3 IC50

T2 sequence (P98170 125-356 C202A/C213G): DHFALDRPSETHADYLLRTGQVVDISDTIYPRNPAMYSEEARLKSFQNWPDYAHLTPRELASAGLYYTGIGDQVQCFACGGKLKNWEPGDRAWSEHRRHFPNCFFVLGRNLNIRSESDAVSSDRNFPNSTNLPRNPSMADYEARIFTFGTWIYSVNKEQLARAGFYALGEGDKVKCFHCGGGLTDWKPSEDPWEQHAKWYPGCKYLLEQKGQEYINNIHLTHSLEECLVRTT
T1 sequence (P98170 241-356): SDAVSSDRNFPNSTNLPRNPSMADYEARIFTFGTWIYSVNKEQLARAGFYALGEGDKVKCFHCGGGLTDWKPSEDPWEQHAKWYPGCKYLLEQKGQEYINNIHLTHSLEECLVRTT

Row | SMILES | pIC50 [1, 3] | pIC50 [2, 4] | pIC50 [1] | pIC50 [2]
1 | CN[C@@H](C)C(=O)N[C@H](C(=O)N1C[C@@H](c2ccc3c(c2)CN(C(=O)[C@@H](NC(=O)[C@H](C)NC)C(C)(C)C)[C@H](C(=O)N[C@@H]2CCCc4ccccc42)C3)C[C@H]1C(=O)N[C@@H](Cc1ccccc1)C(=O)Nc1ccc(-n2cncn2)cc1)C(C)(C)C [Example 65, (S)-7-((3R,5S)-5-(((S)-1-((4-(1H-1,2,4-Triazol-1-yl)phenyl)amino)-1-oxo-3-phenylpropan-2-yl)carbamoyl)-1-((S)-3,3-dimethyl-2-((S)-2-(methylamino)propanamido)butanoyl)pyrrolidin-3-yl)-2-((S)-3,3-dimethyl-2-((S)-2-(methylamino)propanamido)butanoyl)-N-((R)-1,2,3,4-tetrahydronaphthalen-1-yl)-1,2,3,4-tetrahydroisoquinoline-3-carboxamide] | 8.27 | 8.80 | – | –
2 | CN[C@@H](C)C(=O)N[C@H](C(=O)N1C[C@@H](c2ccc3c(c2)CN(C(=O)[C@@H](NC(=O)[C@H](C)NC)C(C)(C)C)[C@H](C(=O)N[C@@H]2CCCc4ccccc42)C3)C[C@H]1C(=O)N[C@@H](Cc1ccccc1)C(=O)NCCc1ccccc1)C(C)(C)C [Example 66, (S)-2-((S)-3,3-Dimethyl-2-((S)-2-(methylamino)propanamido)butanoyl)-7-((3R,5S)-1-((S)-3,3-dimethyl-2-((S)-2-(methylamino)propanamido)butanoyl)-5-(((S)-1-oxo-1-(phenethylamino)-3-phenylpropan-2-yl)carbamoyl)pyrrolidin-3-yl)-N-((R)-1,2,3,4-tetrahydronaphthalen-1-yl)-1,2,3,4-tetrahydroisoquinoline-3-carboxamide] | – | – | 7.88 | 8.51
3 | CN[C@@H](C)C(=O)N[C@H](C(=O)N1C[C@@H](c2ccc3c(c2)CN(C(=O)[C@@H](NC(=O)[C@H](C)NC)C(C)(C)C)[C@H](C(=O)N[C@@H]2CCCc4ccccc42)C3)C[C@H]1C(=O)N[C@@H](Cc1ccccc1)C(=O)Nc1ccccc1)C(C)(C)C [Example 68, (S)-2-((S)-3,3-Dimethyl-2-((S)-2-(methylamino)propanamido)butanoyl)-7-((3R,5S)-1-((S)-3,3-dimethyl-2-((S)-2-(methylamino)propanamido)butanoyl)-5-(((S)-1-oxo-3-phenyl-1-(phenylamino)propan-2-yl)carbamoyl)pyrrolidin-3-yl)-N-((R)-1,2,3,4-tetrahydronaphthalen-1-yl)-1,2,3,4-tetrahydroisoquinoline-3-carboxamide] | – | – | 8.31 | 8.89
4 | CN[C@@H](C)C(=O)N[C@H](C(=O)N1C[C@@H](c2ccc3c(c2)CN(C(=O)[C@@H](NC(=O)[C@H](C)NC)C(C)(C)C)[C@H](C(=O)N[C@@H]2CCCc4ccccc42)C3)C[C@H]1C(=O)N[C@@H](Cc1ccccc1)C(=O)OC)C(C)(C)C [Example 76, (S)-Methyl 2-((2S,4R)-1-((S)-3,3-dimethyl-2-((S)-2-(methylamino)propanamido)butanoyl)-4-((S)-2-((S)-3,3-dimethyl-2-((S)-2-(methylamino)propanamido)butanoyl)-3-(((R)-1,2,3,4-tetrahydronaphthalen-1-yl)carbamoyl)-1,2,3,4-tetrahydroisoquinolin-7-yl)pyrrolidine-2-carboxamido)-3-phenylpropanoate] | – | – | 7.72 | 8.60
5 | CN[C@@H](C)C(=O)N[C@H](C(=O)N1C[C@@H](c2ccc3c(c2)CN(C(=O)[C@@H](NC(=O)[C@H](C)NC)C(C)(C)C)[C@H](C(=O)N[C@@H]2CCCc4ccccc42)C3)C[C@H]1C(=O)N[C@@H](Cc1ccccc1)c1nnn[nH]1)C(C)(C)C [Example 78, (S)-2-((S)-3,3-Dimethyl-2-((S)-2-(methylamino)propanamido)butanoyl)-7-((3R,5S)-1-((S)-3,3-dimethyl-2-((S)-2-(methylamino)propanamido)butanoyl)-5-(((S)-2-phenyl-1-(1H-tetrazol-5-yl)ethyl)carbamoyl)pyrrolidin-3-yl)-N—((R)-1,2,3,4-tetrahydronaphthalen-1-yl)-1,2,3,4-tetrahydroisoquinoline-3-carboxamide] | 8.05 | 8.55 | – | –
6 | CN[C@@H](C)C(=O)N[C@H](C(=O)N1C[C@@H](c2ccc3c(c2)CN(C(=O)[C@@H](NC(=O)[C@H](C)NC)C(C)(C)C)[C@H](C(=O)N[C@@H]2CCCc4ccccc42)C3)C[C@H]1C(=O)N[C@@H](Cc1ccccc1)c1nnc(C)o1)C(C)(C)C [Example 79, (S)-2-((S)-3,3-Dimethyl-2-((S)-2-(methylamino)propanamido)butanoyl)-7-((3R,5S)-1-((S)-3,3-dimethyl-2-((S)-2-(methylamino)propanamido)butanoyl)-5-(((S)-1-(5-methyl-1,3,4-oxadiazol-2-yl)-2-phenylethyl)carbamoyl)pyrrolidin-3-yl)-N—((R)-1,2,3,4-tetrahydronaphthalen-1-yl)-1,2,3,4-tetrahydroisoquinoline-3-carboxamide] | 7.78 | 8.47 | – | –
7 | CN[C@@H](C)C(=O)N[C@H](C(=O)N1C[C@@H](c2ccc3c(c2)CN(C(=O)[C@@H](NC(=O)[C@H](C)NC)C(C)(C)C)[C@H](C(=O)N[C@@H]2CCCc4ccccc42)C3)C[C@H]1C(=O)N[C@@H](Cc1ccccc1)c1noc(C)n1)C(C)(C)C [Example 80, (S)-2-((S)-3,3-Dimethyl-2-((S)-2-(methylamino)propanamido)butanoyl)-7-((3R,5S)-1-((S)-3,3-dimethyl-2-((S)-2-(methylamino)propanamido)butanoyl)-5-(((S)-1-(5-methyl-1,2,4-oxadiazol-3-yl)-2-phenylethyl)carbamoyl)pyrrolidin-3-yl)-N—((R)-1,2,3,4-tetrahydronaphthalen-1-yl)-1,2,3,4-tetrahydroisoquinoline-3-carboxamide] | 8.14 | 8.59 | – | –
8 | CN[C@@H](C)C(=O)N[C@H](C(=O)N1C[C@@H](c2ccc3c(c2)CN(C(=O)[C@@H](NC(=O)[C@H](C)NC)C(C)(C)C)[C@H](C(=O)N[C@@H]2CCCc4ccccc42)C3)C[C@H]1C(=O)N[C@@H](Cc1ccccc1)c1ncc(C)o1)C(C)(C)C [Example 81, (S)-2-((S)-3,3-Dimethyl-2-((S)-2-(methylamino)propanamido)butanoyl)-7-((3R,5S)-1-((S)-3,3-dimethyl-2-((S)-2-(methylamino)propanamido)butanoyl)-5-(((S)-1-(5-methyloxazol-2-yl)-2-phenylethyl)carbamoyl)pyrrolidin-3-yl)-N—((R)-1,2,3,4-tetrahydronaphthalen-1-yl)-1,2,3,4-tetrahydroisoquinoline-3-carboxamide] | 7.87 | 8.59 | – | –

Further lines, with some results ahead:

Row | pIC50 [1, 3] | pIC50 [2, 4] | SMILES | pIC50 [1] | pIC50 [2]
9 | 8.03 | 8.68 | CN[C@@H](C)C(=O)N[C@H](C(=O)N1C[C@@H](c2ccc3c(c2)CN(C(=O)[C@@H](NC(=O)[C@H](C)NC)C(C)(C)C)[C@H](C(=O)N[C@@H]2CCCc4ccccc42)C3)C[C@H]1C(=O)N[C@@H](Cc1ccccc1)C(=O)NCc1nccs1)C(C)(C)C [Example 67, (S)-2-((S)-3,3-Dimethyl-2-((S)-2-(methylamino)propanamido)butanoyl)-7-((3R,5S)-1-((S)-3,3-dimethyl-2-((S)-2-(methylamino)propanamido)butanoyl)-5-(((S)-1-oxo-3-phenyl-1-((thiazol-2-ylmethyl)amino)propan-2-yl)carbamoyl)pyrrolidin-3-yl)-N-((R)-1,2,3,4-tetrahydronaphthalen-1-yl)-1,2,3,4-tetrahydroisoquinoline-3-carboxamide] | – | –
10 | 8.07 | 8.82 | CN[C@@H](C)C(=O)N[C@H](C(=O)N1C[C@@H](c2ccc3c(c2)CN(C(=O)[C@@H](NC(=O)[C@H](C)NC)C(C)(C)C)[C@H](C(=O)N[C@@H]2CCCc4ccccc42)C3)C[C@H]1C(=O)N[C@@H](Cc1ccccc1)C(=O)NCCC(C)C)C(C)(C)C [Example 69, (S)-2-((S)-3,3-Dimethyl-2-((S)-2-(methylamino)propanamido)butanoyl)-7-((3R,5S)-1-((S)-3,3-dimethyl-2-((S)-2-(methylamino)propanamido)butanoyl)-5-(((S)-1-(isopentylamino)-1-oxo-3-phenylpropan-2-yl)carbamoyl)pyrrolidin-3-yl)-N-((R)-1,2,3,4-tetrahydronaphthalen-1-yl)-1,2,3,4-tetrahydroisoquinoline-3-carboxamide] | – | –
11 | 7.84 | 8.52 | CN[C@@H](C)C(=O)N[C@H](C(=O)N1C[C@@H](c2ccc3c(c2)CN(C(=O)[C@@H](NC(=O)[C@H](C)NC)C(C)(C)C)[C@H](C(=O)N[C@@H]2CCCc4ccccc42)C3)C[C@H]1C(=O)N[C@H](COC)Cc1ccccc1)C(C)(C)C [Example 75, (S)-2-((S)-3,3-Dimethyl-2-((S)-2-(methylamino)propanamido)butanoyl)-7-((3R,5S)-1-((S)-3,3-dimethyl-2-((S)-2-(methylamino)propanamido)butanoyl)-5-(((S)-1-methoxy-3-phenylpropan-2-yl)carbamoyl)pyrrolidin-3-yl)-N-((R)-1,2,3,4-tetrahydronaphthalen-1-yl)-1,2,3,4-tetrahydroisoquinoline-3-carboxamide] | – | –
12 | 8.77 | 9.10 | CN[C@@H](C)C(=O)N[C@H](C(=O)N1C[C@@H](c2ccc3c(c2)CN(C(=O)[C@@H](NC(=O)[C@H](C)NC)C(C)(C)C)[C@H](C(=O)N[C@@H]2CCCc4ccccc42)C3)C[C@H]1C(=O)N[C@@H](Cc1ccccc1)C(=O)O)C(C)(C)C [Example 77, (S)-2-((2S,4R)-1-((S)-3,3-Dimethyl-2-((S)-2-(methylamino)propanamido)butanoyl)-4-((S)-2-((S)-3,3-dimethyl-2-((S)-2-(methylamino)propanamido)butanoyl)-3-(((R)-1,2,3,4-tetrahydronaphthalen-1-yl)carbamoyl)-1,2,3,4-tetrahydroisoquinolin-7-yl)pyrrolidine-2-carboxamido)-3-phenylpropanoic acid] | – | –
